The values below come from patent US11149036B2, “3-(1H-pyrazol-4-yl)pyridine allosteric modulators of the M4 muscarinic acetylcholine receptor” (Merck Sharp & Dohme Corp., priority 2017, dated 2021).

For this experiment, the target named is T1, human M4 muscarinic acetylcholine receptor (Homo sapiens, UniProt P08173).
T1 construct: expressed in transfected cells; host or cells: CHO-K1
T1 sequence (P08173 1-479): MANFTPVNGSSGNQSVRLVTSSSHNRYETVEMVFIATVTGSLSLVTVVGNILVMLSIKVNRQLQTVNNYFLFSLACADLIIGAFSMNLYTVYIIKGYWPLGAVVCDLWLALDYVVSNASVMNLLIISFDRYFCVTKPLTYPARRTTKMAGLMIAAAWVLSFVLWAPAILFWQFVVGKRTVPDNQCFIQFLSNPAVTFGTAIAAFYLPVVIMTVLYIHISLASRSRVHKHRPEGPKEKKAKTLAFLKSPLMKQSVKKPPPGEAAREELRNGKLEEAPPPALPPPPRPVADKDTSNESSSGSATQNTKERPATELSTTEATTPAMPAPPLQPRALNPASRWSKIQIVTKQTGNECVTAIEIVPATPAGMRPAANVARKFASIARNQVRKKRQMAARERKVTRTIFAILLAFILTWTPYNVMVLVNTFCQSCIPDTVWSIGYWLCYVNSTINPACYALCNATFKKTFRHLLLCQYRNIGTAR
The experiment in a line: human FLIPR-based M4 PAM assay (CHO-K1 cells with human M4 receptor and Gaqi5, calcium dye fluorescence). Format: cell-based. The conditions noted are these: inflection point (IP) of dose response curve, acetylcholine added at 20% of maximum response, read-out: M4 FLIPPR Hu IP. The gist of the method: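 CHO-K1 cells stably expressing human M4 with chimeric Gaqi5, calcium-dye loaded ~1 h at 37° C; compound added at increasing concentrations 4 min before acetylcholine at an EC20 concentration (sometimes a further EC70 addition).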
For `N#Cc1ccc(-c2cnn(C[C@H]3CC[C@H](F)C3)c2)c(-c2ccc3cccnc3c2)n1` [Example 68, 5-(1-(((1S,3S)-3-fluorocyclopentyl)methyl)-1H-pyrazol-4-yl)-6-(quinolin-7-yl)picolinonitrile], the EC50 came out at 38 nM. For the compound `Cc1cn2ccc(-c3nc(C#N)ccc3-c3cnn(C[C@H]4CC[C@H](F)C4)c3)cc2n1` [Example 69, 5-(1-(((1S,3S)-3-fluorocyclopentyl)methyl)-1H-pyrazol-4-yl)-6-(2-methylimidazo[1,2-a]pyridin-7-yl)picolinonitrile], the EC50 stood at 25 nM. With `Cn1cnc2cc(-c3nc(C#N)ccc3-c3cnn(C[C@@H]4CC[C@@H](F)C4)c3)ccc21` [Example 70, 5-(1-(((1R,3R)-3-fluorocyclopentyl)methyl)-1H-pyrazol-4-yl)-6-(1-methyl-1H-benzo[d]imidazol-5-yl)picolinonitrile], the EC50 came to 49 nM.

For the compound `N#Cc1ccc(-c2cnn(CC3C[C@H](F)[C@@H](F)C3)c2)c(-c2ccn3ccnc3c2)n1` [Example 71, 5-(1-(((3S,4S)-3,4-difluorocyclopentyl)methyl)-1H-pyrazol-4-yl)-6-(imidazo[1,2-a]pyridin-7-yl)picolinonitrile], the EC50 was 26 nM. For `Cn1cnc2cc(-c3nc(C#N)ccc3-c3cnn(CC4C[C@H](F)[C@@H](F)C4)c3)ccc21` [Example 72, 5-(1-(((3S,4S)-3,4-difluorocyclopentyl)methyl)-1H-pyrazol-4-yl)-6-(1-methyl-1H-benzo[d]imidazol-5-yl)picolinonitrile], the EC50 was found to be 41 nM. Consider `CC1(Cn2cc(-c3ccc(C#N)nc3-c3cnc4c(c3)C(=O)OC4)cn2)CCCC1` [Example 73, 5-(1-((1-methylcyclopentyl)methyl)-1H-pyrazol-4-yl)-6-(5-oxo-5,7-dihydrofuro [3,4-b]pyridin-3-yl) picolinonitrile], for which the EC50 amounted to 41 nM.

On to `CC1(Cn2cc(-c3ccc(C#N)nc3-c3ccn4c(F)cnc4c3)cn2)CCCC1` [Example 74, 6-(3-fluoroimidazo[1,2-a]pyridin-7-yl)-5-(1-((1-methylcyclopentyl)methyl)-1H-pyrazol-4-yl)picolinonitrile], for which the EC50 is 58 nM. In the case of `CC1(Cn2cc(-c3ccc(C#N)nc3-c3ccn4ncnc4c3)cn2)CCCC1` [Example 75, 6-([1,2,4]triazolo[1,5-a]pyridin-7-yl)-5-(1-((1-methylcyclopentyl)methyl)-1H-pyrazol-4-yl)picolinonitrile], the EC50 worked out at 31 nM. Regarding `CC1(Cn2cc(-c3ccc(C#N)nc3-c3ccn4cc(C(F)F)nc4c3)cn2)CCCC1` [Example 76, 6-(2-(difluoromethyl)imidazo [1,2-a]pyridin-7-yl)-5-(1-((1-methylcyclopentyl)methyl)-1H-pyrazol-4-yl)picolinonitrile], the EC50 was found to be 23 nM. Turning to `CC1(Cn2cc(-c3ccc(C#N)nc3-c3ccn4cncc4c3)cn2)CCCC1` [Example 77, 6-(imidazo[1,5-a]pyridin-7-yl)-5-(1-((1-methylcyclopentyl)methyl)-1H-pyrazol-4-yl)picolinonitrile], the EC50 was found to be 66 nM. As to `CC1(Cn2cc(-c3ccc(C#N)nc3-c3ccn4nc(CF)nc4c3)cn2)CCCC1` [Example 78, 6-(2-(fluoromethyl)-[1,2,4]triazolo[1,5-a]pyridin-7-yl)-5-(1-((1-methylcyclopentyl)methyl)-1H-pyrazol-4-yl)picolinonitrile], the EC50 was determined as 29 nM.

In the case of `CC1(Cn2cc(-c3ccc(C#N)nc3-c3ccn4nccc4c3)cn2)CCCC1` [Example 79, 5-(1-((1-methylcyclopentyl)methyl)-1H-pyrazol-4-yl)-6-(pyrazolo[1,5-a]pyridin-5-yl) picolinonitrile], the EC50 is 80 nM.

Take `Cc1nc2cc(-c3nc(C#N)ccc3-c3cnn(CC4(C)CCCC4)c3)cnc2o1` [Example 80, 5-(1-((1-methylcyclopentyl)methyl)-1H-pyrazol-4-yl)-6-(2-methyloxazolo[5,4-b]pyridin-6-yl)picolinonitrile]: the EC50 came to 65 nM. As for `CC1(Cn2ncc(-c3ccc(C#N)nc3-c3ccn4ccnc4c3)c2Cl)CCCC1` [Example 81, 5-(5-chloro-1-((1-methylcyclopentyl)methyl)-1H-pyrazol-4-yl)-6-(imidazo[1,2-a]pyridin-7-yl)picolinonitrile], the EC50 came to 82 nM. In the case of `CC1(Cn2cc(-c3ccc(C#N)nc3-c3ccn4cc(CO)nc4c3)cn2)CCCC1` [Example 82, 6-(2-(hydroxymethyl)imidazo [1,2-a]pyridin-7-yl)-5-(1-((1-methylcyclopentyl)methyl)-1H-pyrazol-4-yl)picolinonitrile] it was 20 nM; in that of `Cc1cn2ccc(-c3nc(C#N)ccc3-c3cnn(CC4C[C@@H](F)[C@H](F)C4)c3)cc2n1` [Example 83, 5-(1-(((3R,4R)-3,4-difluorocyclopentyl)methyl)-1H-pyrazol-4-yl)-6-(2-methylimidazo[1,2-a]pyridin-7-yl)picolinonitrile], 26 nM; in that of `N#Cc1ccc(-c2cnn(CC3C[C@@H](F)[C@H](F)C3)c2)c(-c2ccc3cccnc3c2)n1` [Example 84, 5-(1-(((3R,4R)-3,4-difluorocyclopentyl)methyl)-1H-pyrazol-4-yl)-6-(quinolin-7-yl)picolinonitrile], 33 nM. In the case of `Cn1cnc2cc(-c3nc(C#N)c(F)cc3-c3cnn(CC4(C)CCCC4)c3)cnc21` [Example 85, 3-fluoro-6-(3-methyl-3H-imidazo[4,5-b]pyridin-6-yl)-5-(1-((1-methylcyclopentyl)methyl)-1H-pyrazol-4-yl)picolinonitrile] it was 37 nM. `Cn1cnc2cc(-c3nc(C#N)c(F)cc3-c3cnn(CC4(C)CCCC4)c3)ccc21` [Example 86, 3-fluoro-6-(1-methyl-1H-benzo[d]imidazol-5-yl)-5-(1-((1-methylcyclopentyl)methyl)-1H-pyrazol-4-yl)picolinonitrile]: the EC50 turned out to be 18 nM. Regarding `CC1(Cn2cc(-c3cc(F)c(C#N)nc3-c3ccn4ccnc4c3)cn2)CCCC1` [Example 87, 3-fluoro-6-(imidazo[1,2-a]pyridin-7-yl)-5-(1-((1-methylcyclopentyl)methyl)-1H-pyrazol-4-yl)picolinonitrile], the EC50 was found to be 11 nM. Take `Cc1cn2ccc(-c3nc(C#N)c(F)cc3-c3cnn(CC4(C)CCCC4)c3)cc2n1` [Example 88, 3-fluoro-5-(1-((1-methylcyclopentyl)methyl)-1H-pyrazol-4-yl)-6-(2-methylimidazo [1,2-a]pyridin-7-yl)picolinonitrile]: the EC50 was determined as 24 nM. On to `Cn1cc2ccc(-c3nc(C#N)c(F)cc3-c3cnn(CC4(F)CCCC4)c3)cc2n1` [Example 89, 3-fluoro-5-(1-((1-fluorocyclopentyl)methyl)-1H-pyrazol-4-yl)-6-(2-methyl-2H-indazol-6-yl) picolinonitrile], for which the EC50 came out at 67 nM. `Cc1nnc2cc(-c3nc(C#N)c(F)cc3-c3cnn(CC4(F)CCCC4)c3)ccn12` [Example 90, 3-fluoro-5-(1-((1-fluorocyclopentyl)methyl)-1H-pyrazol-4-yl)-6-(3-methyl-[1,2,4]triazolo [4,3-a]pyridin-7-yl)picolinonitrile]: the EC50 came out at 42 nM. `N#Cc1nc(-c2ccn3cc(C(F)(F)F)nc3c2)c(-c2cnn(CC3(F)CCCC3)c2)cc1F` [Example 91, 3-fluoro-5-(1-((1-fluorocyclopentyl)methyl)-1H-pyrazol-4-yl)-6-(2-(trifluoromethyl)imidazo [1,2-a]pyridin-7-yl)picolinonitrile]: the EC50 was found to be 33 nM.
